The values that follow are results of earlier work, collected in paper PMC11558673, “Exploring LCST- and UCST-like Behavior of Branched Molecules Bearing Repeat Units of Elastin-like Peptides as Side Components” (Biomacromolecules, 2024).

For the series the following is noted: monomeric pentapeptide; cited from earlier work. The source says:
Short ELPs with a (VPGVG)n sequence ...

For “H-FPGVG-NH2 [F1, monomeric elastin-like pentapeptide Phe-Pro-Gly-Val-Gly amide]”, the “Coacervation (LCST-like behavior)” value is recorded as “did not show coacervation”.
